Laboratory results published in US5859067A, “Use of natural products and related synthetic compounds for the treatment of cardiovascular disease” (priority 1993, dated 1999).
≈ marks a conversion by molar mass, not a printed value. Where “and” joins values, the source holds several entries; their conditions need not be identical. Identical values can stand only once. Like-named read-outs stand apart in the source and are kept apart here.

Columns and labels:
[1] = biological target: T1, human erythrocyte plasma membrane Ca^2+ -ATPase (Homo sapiens, UniProt P23634); assay: Ca^2+ -ATPase assay (erythrocyte membranes; Table 1); type: biochemical; settings: for inhibition at 25 µM / inhibition at 100 µM: read-out: INHIBITION OF Ca^2+ -ATPase PERCENT (%); for Ca^2+ -ATPase inhibitory activity relative to striatol: compared with natural product striatol
T1 construct: Calmodulin-depleted erythrocyte membranes were prepared by continuous filtration through a hollow fibre; tissue New South Wales Red Cross Transfusion Service, Sydney; host or cells: human packed red blood cells (calmodulin-depleted erythrocyte membranes)
T1 sequence (P23634 1-1205 isoform P23634-6): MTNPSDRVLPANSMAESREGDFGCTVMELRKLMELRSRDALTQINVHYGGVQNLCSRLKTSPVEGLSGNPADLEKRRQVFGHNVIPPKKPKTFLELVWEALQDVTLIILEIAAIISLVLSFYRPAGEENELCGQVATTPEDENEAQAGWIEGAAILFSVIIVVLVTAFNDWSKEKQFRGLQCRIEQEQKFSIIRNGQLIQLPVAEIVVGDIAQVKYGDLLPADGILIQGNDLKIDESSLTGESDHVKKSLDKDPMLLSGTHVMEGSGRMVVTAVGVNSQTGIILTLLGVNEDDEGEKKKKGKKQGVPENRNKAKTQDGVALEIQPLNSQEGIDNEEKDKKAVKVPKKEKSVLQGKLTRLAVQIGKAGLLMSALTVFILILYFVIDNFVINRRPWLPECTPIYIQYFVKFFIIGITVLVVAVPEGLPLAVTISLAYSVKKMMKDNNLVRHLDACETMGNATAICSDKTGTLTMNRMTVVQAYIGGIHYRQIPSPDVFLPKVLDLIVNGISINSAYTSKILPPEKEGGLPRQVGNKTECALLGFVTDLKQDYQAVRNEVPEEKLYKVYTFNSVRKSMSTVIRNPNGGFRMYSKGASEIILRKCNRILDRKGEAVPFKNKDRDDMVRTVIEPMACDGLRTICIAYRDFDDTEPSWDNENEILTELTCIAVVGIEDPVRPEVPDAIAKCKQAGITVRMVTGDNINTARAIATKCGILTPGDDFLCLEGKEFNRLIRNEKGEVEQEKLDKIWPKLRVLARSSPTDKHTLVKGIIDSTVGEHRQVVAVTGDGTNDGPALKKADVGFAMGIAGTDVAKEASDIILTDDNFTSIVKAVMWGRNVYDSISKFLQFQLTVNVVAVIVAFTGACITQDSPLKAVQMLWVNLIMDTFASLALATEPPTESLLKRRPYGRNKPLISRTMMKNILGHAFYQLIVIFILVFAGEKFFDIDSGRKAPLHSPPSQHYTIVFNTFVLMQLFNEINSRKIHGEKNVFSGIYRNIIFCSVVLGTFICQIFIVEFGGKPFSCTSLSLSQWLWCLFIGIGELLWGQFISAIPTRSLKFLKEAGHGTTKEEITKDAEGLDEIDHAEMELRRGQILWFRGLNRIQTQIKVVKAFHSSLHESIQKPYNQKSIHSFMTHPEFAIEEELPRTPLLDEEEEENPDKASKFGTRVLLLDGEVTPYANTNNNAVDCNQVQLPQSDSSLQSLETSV
T1 sequence (P35613 140-385 partner limits assumed): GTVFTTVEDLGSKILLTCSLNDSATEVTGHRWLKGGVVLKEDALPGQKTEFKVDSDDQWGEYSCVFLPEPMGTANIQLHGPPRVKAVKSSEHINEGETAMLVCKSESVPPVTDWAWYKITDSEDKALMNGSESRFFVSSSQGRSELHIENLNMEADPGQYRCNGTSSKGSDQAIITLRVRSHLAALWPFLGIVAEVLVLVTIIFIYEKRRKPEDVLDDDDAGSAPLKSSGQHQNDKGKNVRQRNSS
Experimental: Natural and synthetic compounds of formula (I) were tested for their ability to influence human erythrocyte plasma membrane Ca^2+ -ATPase.
(§1) Packed cells were obtained from the New South Wales Red Cross Transfusion Service, Sydney. The whole preparation was carried out at 4° C. 1 unit of packed red cells was washed 3 times with isotonic buffer, containing 130 mM KCl, 20 mM Tris-HCl (pH 7.4), and the cells were collected by centrifugation at 4,000 RPM. The cells were haemolysed by the buffer containing 1 mM EDTA, 10 mM Tris-Hcl (pH 7.4), 0.5 mM PMSF (phenylmethyl sulfonyl fluoride). The haemolyzate mixture was passed through the hollow fibre system until the membrane appeared white, and then washed with 10 mM potassium Hepes (pH 7.4). The membranes were collected by centrifugation at 10,000 RPM for 20 min, the membranes were resuspended in storage buffer containing 130 mM KCl, 2 mM dithiothreitol, 0.5 mM MgCl2, 20 mM potassium-Hepes (pH 7.5). The membranes with protein concentration of 1.5-5.4 mg/ml were stored at -80° C. until required.
Erythrocyte membranes (0.071-0.098 mg/ml) were incubated at 37° C. for one hour in a total volume of 0.4 ml of 65 mM KCl, 20 mM potassium-Hepes, 5 mM MgCl2, 50 μM CaCl2, 0.1 μm calmodulin, 0.1 mM EGTA. The reaction was started by adding 2 mM ATP(pH 7.4). […] The activity of the Mg^2+ -ATPase (assayed in the absence of added CaCl2) was subtracted from the total activity assayed in the presence of Ca^2+. […] A concentrated solution of the test substances was added to the reaction medium before adding ATP.

[2] = biological target: T1, human erythrocyte plasma membrane Ca^2+ -ATPase; assay: Ca^2+ -ATPase assay (microplate method), absence (-CaM) and presence (+CaM) of calmodulin (Table 1A); type: biochemical
Experimental: Natural and synthetic compounds of formula (I) were tested for their ability to influence human erythrocyte plasma membrane Ca^2+ -ATPase. The enzyme Ca^2+ -ATPase in the human red blood cell plasma membrane has previously been studied and its stimulation by calmodulin and activation by lipids and proteolysis and its primary structure have been published (see Carafoli E (1991) Calcium pump of the plasma membrane, Physiological Reviews 71, 129-153.
as §1, with “Calmodulin-depleted erythrocyte membranes were prepared by continuous filtration through a hollow fibre, Ashahi plasma separator as described by W S Price, B D Roufogalis, P W Kuchel (1989), A simple and inexpensive method for preparing erythrocyte membranes by filtration through a hollow-filter system, Anal. Biochem., 179, 190-193. Packed” for “Packed”
Erythrocyte membranes were incubated at 37° C. for one hour in a total volume of 60 μl of 65 mM KCl, 50 mM HEPES (pH=7.4), 5 mM MgCl2, 50 μM CaCl2, 0.1 mM EGTA and in absence and presence of calmodulin (0.3 μM). Test compounds were dissolved in dimethyl sulfoxide DMSO and 2 μl was added to the assay mixture prior the addition of ATP. The final concentration of DMSO in the assay mixture was 3%. The reaction was started by adding 2 mM ATP (pH=7.4). After 1 hour of incubation, colouring agent (180 μl) was added and incubated at 37° C. for 1/2 hrs. The phosphate liberated to the assay medium was determined spectrometrically using a microplate reader at 750 nm. The activity of the Mg^2+ -ATPase (assayed in the absence of added CaCl2) was subtracted from the total activity assayed in the presence of Ca^2+.

[3] = test system: brine shrimp (Artemia salina Leach); assay: Brine shrimp toxicity bioassay; type: in vivo; settings: for LC50: Artemia salina, read-out: LC50 brine shrimp
Experimental: There are many applications of the assay including analysis of toxic substances, anaesthetics, morphine-like substances and cocarcinogenicity of phorbol esters.
6 (K Hostettman, ed.), Academ Press, London, 1-32. DMSO solutions of the substances to be tested were added directly to the vials containing the brine shrimp. As the concentration of DMSO that we wished to use was higher than the recommended 1% v/v testing of the toxicity of the DMSO was therefore necessary.
Brine shrimp toxicity was assayed, except for some minor modifications, according to the method of McLaughlin et al as reported in Brine Shrimp: A convenient general bioassay for active plant constituents, B N Meyer, N R Ferrigni, J E Putman, L B Jacobsen, D E Nhols and J L McLaughlin. […] J L McLaughlin. […] 6 (K Hostettman, ed.), Academ Press, London, 1-32. Ten shrimp were added transferred to each of the vials and the volume adjusted to 4.9 mL. Each dose was performed in triplicate, including the control. In quick succession, the appropriate volume of additional DMSO for each dose, required to achieve a final concentration of 2%, was added before the appropriate volume of test solution. The vials were gently mixed and the time noted. After 24 hours, the number of survivors were counted and % mortality was determined.
The LC50 values were expressed in both μM and μg/mL.

[4] = test system: brine shrimp (Artemia salina Leach); settings: determined by Meyer et al.; cited from earlier work
[5] = test system: purified erythrocyte Ca^2+ -ATPase; assay: Inhibition of purified erythrocyte Ca^2+ -ATPase; type: biochemical; settings: purified enzyme
[6] = test system: ^45 Ca^2+ efflux from rat thoracic aorta smooth muscle cells; assay: ^45 Ca^2+ efflux from cultured vascular smooth muscle cells; type: cell-based
Excerpt: ^45 Ca efflux from cultured vascular smooth muscle cells consists of two major mechanisms; one is dependent on extracellular sodium, mediated by the Na^+ -Ca^2+ exchanger (Na^+ - dependent Ca^2+ efflux), and the other is independent of extracellular sodium but is mediated by the Ca^2+ pump (Na^+ - independent Ca^2+ efflux). The effect of striatol on the efflux of calcium (^45 Ca^2+) from rat thoracic aorta smooth muscle cells in culture was studied. ^45 Ca^2+ efflux is a measure of plasma membrane Ca^2+ -ATPase (plus Na^+ : Ca^2+ exchange) in intact (whole) cells.

[7] = read-out: INHIBITION OF Ca^2+ -ATPase IC50
[8] = absence of calmodulin, read-out: IC50 (-CaM)
[9] = presence of calmodulin (0.3 μM), read-out: IC50 (+CaM)

| SMILES | Ca^2+ -ATPase inhibitory activity (in words) [1] | IC50 [1, 7] [µM] | IC50 [2, 8] [µM] | IC50 [2, 9] [µM] | LC50 ([3]; 24 hours) | other results |
| --- | --- | --- | --- | --- | --- | --- |
| Oc1ccccc1CCCCCCCCCCc1ccccc1O [1,10-bis(2-hydroxyphenyl)decane] | strongest Ca^2+ -ATPase inhibition among the synthesised phenolic compounds | 7.6 | 8.4 | 9 | 1.9 µM and 0.62 µg/mL | inhibition at 25 µM [1]: 100%; Ca^2+ -ATPase inhibitory activity relative to striatol [1]: two-fold higher; Ca^2+ -ATPase inhibitory activity (in words) [2]: most potent inhibitors of plasma Ca^2+ -ATPase among the synthesised substances; toxicity to brine shrimp (in words) ([3]; 24 hours): moderately toxic |
| Oc1ccc(CCCCCCCCCCCCc2ccc(O)cc2O)c(O)c1 [1,12-bis(2,4-dihydroxyphenyl)dodecane] |  |  | 12 | 20 | 14 µM and 5.4 µg/mL |  |
| Oc1ccccc1CCCCCCCCCCCCc1ccccc1O [1,12-bis(2-hydroxyphenyl)dodecane] | strongest Ca^2+ -ATPase inhibition among the synthesised phenolic compounds | 8.3 | 12.5 | 13 | 2.6 µM and 0.94 µg/mL | inhibition at 25 µM [1]: 100%; Ca^2+ -ATPase inhibitory activity relative to striatol [1]: two-fold higher |
| CCCCCCCCCc1ccccc1O [2-nonylphenol] |  |  |  |  |  | IC50 [1]: 30 µM; inhibition at 100 µM [1]: 95%; IC50 ([2]; IC50 (+CaM), presence of calmodulin (0.3 μM)): 40 µM; IC50 ([2]; IC50 (-CaM), absence of calmodulin): 36 µM; LC50 ([3]; 24 h): 480 nM and 0.11 µg/mL |
| CCCCCCCCCCCCc1ccc(O)cc1O [4-dodecylresorcinol, reference compound] | most potent among the alkylresorcinols tested | 69 | 80 | 100 | 8.8 µM and 2.4 µg/mL | inhibition at 100 µM ([1]; at 100 μM): 68% |
| CCCCCCCCCc1ccc(O)cc1O [4-nonylresorcinol] |  |  | 125 |  | 10 µM and 2.4 µg/mL |  |
| C=C(C)C(CC=C(C)C)Cc1c(O)cc(O)c2c1OC(c1c(O)cccc1O)CC2=O (stereo not drawn) [5,7,2',6'-tetrahydroxy-8-lavandulylflavanone] |  |  | 20 |  | > 100 µM and > 42 µg/mL |  |
| COc1cc([C@@H]2c3cc4c(cc3[C@H](O)[C@H]3COC(=O)[C@H]23)OCO4)cc(OC)c1OC [podophyllotoxin, reference compound] |  |  |  |  |  | LC50 ([3]; 24 h): 3.8 µM and 1.6 µg/mL; LC50 [4]: 5.8 µM; LC50 brine shrimp (Meyer et al.) [4]: 2.4 µg/mL (≈ 5.79 µM) |
| Cc1c(O)cc(CCCCCCCCCCCCCCc2cc(O)c(C)c(O)c2)cc1O [striatol, 1,14-bis(3,5-dihydroxy-4-methylphenyl)tetradecane] |  | 16 |  |  | 11 µM and 4.9 µg/mL | inhibition at 100 µM ([1]; at 100 μM): 98%; inhibitory activity with purified erythrocyte Ca^2+ -ATPase [5]: confirmed; inhibition of ^45 Ca^2+ efflux ([6]; 20 μM, 5 min): partial inhibition; inhibition of ^45 Ca^2+ efflux ([6]; 20 μM, 10 min): partial inhibition; inhibition of ^45 Ca^2+ efflux ([6]; 50 μM, 30 min): complete inhibition; toxicity to brine shrimp (in words) ([3]; 24 hours): relatively low toxicity |
